Holding throughout (test): Fluorescence polarization SH3 domain-PRP binding
Background: Fluorescence polarisation rises when a labelled molecule tumbles more slowly, as on binding a larger partner.

The target of assay [1] is T1, NCK1-1 SH3 domain (aa 2-61) (Homo sapiens, UniProt P16333).
T1 construct: 2-61; GST (N); made in house; host or cells: Escherichia coli CodonPlus, Rosetta, BL21(DE3)
Particulars: FP, 0.2 µM fluorescein-labeled peptide, SH3 domain 0-200 µM, Tris/HCl pH 7.5, 25 °C, quadratic fit. As to the method:
(§1) The interaction between fluorescein-labeled proline-rich peptides (0.2 µM) and increasing concentrations of SH3 domains (ranging from 0 to 200 µM) was measured in a buffer (containing 30 mM Tris/HCl (pH 7.5), 5 mM MgCl2, and 3 mM DTT at 25 °C) in a total volume of 200 µL using a Fluoromax 4 fluorimeter in polarization mode and a quartz glass fluorescence cuvette (Hellma Ultra-Micro Cuvette 105.250-QS, Thermo Fisher Scientific, Waltham, MA USA). Excitation was performed at 470 nm and emission was measured at 560 nm. Dissociation constants (Kd) were determined by fitting the concentration-dependent binding curve to a quadratic ligand binding equation.
(§2) Fluorescence polarization measurements were performed to determine the binding affinities of SH3 domain–PRP interaction pairs from the dot blot analysis. SH3 proteins were titrated at increasing concentrations against fluorescent PRPs, which were kept at a constant concentration of 0.2 µM. GRB2-2^W193K, which is defective in the binding of PRPs such as RP1, was used as a negative control as previously described. […] The resulting data (Figure S6) allowed the evaluation of equilibrium dissociation constants (Kd) for 45 interactions between the SH3 domains and the PRPs (Figure 2B; Table S6).
(§3) Figure S6. Interactions of the SH3 domains with fluorescent PRPs measured by fluorescence polarization.
(§4) Fluorescent peptides (0.2 µM) were titrated with increasing concentrations of the corresponding SH3 domains.
(§5) GRB2-2W193K, defective in the binding of PRPs such as RP1, was used as a negative control as previously described. The x-axis represents SH3 domain concentrations as GST fusion proteins in µM, while the y-axis represents fluorescence polarization. The equilibrium dissociation constants (Kd) for the respective measurements were determined by fitting the titration curves to a quadratic ligand-binding equation (solid lines). All Kd values are […]
(§6) Error bars are derived from the fitting errors.

In assay [2] the target is T2, SH3GLB1 SH3 domain (aa 305-365) (Homo sapiens, UniProt Q9Y371).
T2 construct: 305-365; GST (N); made in house; host or cells: Escherichia coli CodonPlus, Rosetta, BL21(DE3)
T2 sequence (Q9Y371 305-365): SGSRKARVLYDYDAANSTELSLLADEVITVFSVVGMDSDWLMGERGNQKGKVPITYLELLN
Particulars: FP, 0.2 µM fluorescein-labeled peptide, SH3 domain 0-200 µM, Tris/HCl pH 7.5, 25 °C, quadratic fit. As to the method: as §1, §2, §3, §4, §5, §6

For assay [3], the target named is T3, SRC SH3 domain (aa 77-140) (Homo sapiens, UniProt P12931).
T3 construct: 77-140; GST (N); made in house; host or cells: Escherichia coli CodonPlus, Rosetta, BL21(DE3)
T3 sequence (P12931 77-140 limits assumed): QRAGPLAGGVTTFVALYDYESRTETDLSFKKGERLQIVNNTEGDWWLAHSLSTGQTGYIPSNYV
Particulars: FP, 0.2 µM fluorescein-labeled peptide, SH3 domain 0-200 µM, Tris/HCl pH 7.5, 25 °C, quadratic fit. As to the method:
as §1, §2, §3, §4, §5, §6

The target in assay [4] is T4, NCK1-2 SH3 domain (aa 106-165) (Homo sapiens, UniProt P16333).
T4 construct: 106-165; GST (N); made in house; host or cells: Escherichia coli CodonPlus, Rosetta, BL21(DE3)
Particulars: FP, 0.2 µM fluorescein-labeled peptide, SH3 domain 0-200 µM, Tris/HCl pH 7.5, 25 °C, quadratic fit. As to the method:
as §1, §2, §3, §4, §5, §6

In assay [5] the target is T5, NPHP1 SH3 domain (Homo sapiens, UniProt O15259).
T5 construct: GST (N); made in house; host or cells: Escherichia coli CodonPlus, Rosetta, BL21(DE3)
T5 sequence (O15259 152-212 limits assumed): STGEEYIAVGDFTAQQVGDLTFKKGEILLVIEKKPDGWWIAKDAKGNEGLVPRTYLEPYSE
Particulars: FP, 0.2 µM fluorescein-labeled peptide, SH3 domain 0-200 µM, Tris/HCl pH 7.5, 25 °C, quadratic fit. As to the method: as §1, §2, §3, §4, §5, §6

The target in assay [6] is T6, NCK1-3 SH3 domain (aa 190–252) (Homo sapiens, UniProt P16333).
T6 construct: 190–252; GST (N); made in house; host or cells: Escherichia coli CodonPlus, Rosetta, BL21(DE3)
Particulars: NCK1-3 (wt), FP, 0.2 µM fluorescein-labeled peptide, SH3 domain 0-200 µM, Tris/HCl pH 7.5, 25 °C, quadratic fit. As to the method: as §1, §2, §3, §4, §5, §6

The target of assay [7] is T7, ITSN1-5 SH3 domain (aa 1155-1214) (Homo sapiens, UniProt Q15811).
T7 construct: 1155-1214; GST (N); made in house; host or cells: Escherichia coli CodonPlus, Rosetta, BL21(DE3)
T7 sequence (Q15811 1155-1214): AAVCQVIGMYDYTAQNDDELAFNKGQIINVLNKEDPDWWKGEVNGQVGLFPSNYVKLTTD
Particulars: FP, 0.2 µM fluorescein-labeled peptide, SH3 domain 0-200 µM, Tris/HCl pH 7.5, 25 °C, quadratic fit. As to the method: as §1, §2, §3, §4, §5, §6

Assay [8] has as its target T8, SORBS1-1 SH3 domain (aa 793-852) (Homo sapiens, UniProt Q9BX66).
T8 construct: 793-852; GST (N); made in house; host or cells: Escherichia coli CodonPlus, Rosetta, BL21(DE3)
T8 sequence (Q9BX66 793-852): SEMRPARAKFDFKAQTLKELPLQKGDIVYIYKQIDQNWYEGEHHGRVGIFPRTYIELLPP
Particulars: FP, 0.2 µM fluorescein-labeled peptide, SH3 domain 0-200 µM, Tris/HCl pH 7.5, 25 °C, quadratic fit. As to the method: as §1, §2, §3, §4, §5, §6

Assay [9] concerns the target T9, RIMBP3B-1 SH3 domain (aa 832-899) (Homo sapiens, UniProt A6NNM3).
T9 construct: 832-899; GST (N); made in house; host or cells: Escherichia coli CodonPlus, Rosetta, BL21(DE3)
T9 sequence (A6NNM3 832-899): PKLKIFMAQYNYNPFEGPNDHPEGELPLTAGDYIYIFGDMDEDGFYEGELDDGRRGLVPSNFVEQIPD
Particulars: FP, 0.2 µM fluorescein-labeled peptide, SH3 domain 0-200 µM, Tris/HCl pH 7.5, 25 °C, quadratic fit. As to the method:
as §1, §2, §3, §4, §5, §6

The target in assay [10] is T10, RASA1 SH3 domain (aa 279–341) (Homo sapiens, UniProt P20936).
T10 construct: 279–341; GST (N); made in house; host or cells: Escherichia coli CodonPlus, Rosetta, BL21(DE3)
T10 sequence (P20936 279-341): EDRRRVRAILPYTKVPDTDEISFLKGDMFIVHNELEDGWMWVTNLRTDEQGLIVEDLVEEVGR
Particulars: FP, 0.2 µM fluorescein-labeled peptide, SH3 domain 0-200 µM, Tris/HCl pH 7.5, 25 °C, quadratic fit. As to the method: as §1, §2, §3, §4, §5, §6

For assay [11], the target named is T11, ITSN1-4 SH3 domain (aa 1070-1138) (Homo sapiens, UniProt Q15811).
T11 construct: 1070-1138; GST (N); made in house; host or cells: Escherichia coli CodonPlus, Rosetta, BL21(DE3)
T11 sequence (Q15811 1070-1138): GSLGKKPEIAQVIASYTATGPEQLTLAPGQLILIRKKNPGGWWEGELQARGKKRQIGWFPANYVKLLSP
Particulars: FP, 0.2 µM fluorescein-labeled peptide, SH3 domain 0-200 µM, Tris/HCl pH 7.5, 25 °C, quadratic fit. As to the method:
as §1, §2, §3, §4, §5, §6

Assay [12] has as its target T12, SNX9 SH3 domain (aa 1-62) (Homo sapiens, UniProt Q9Y5X1).
T12 construct: 1-62; GST (N); made in house; host or cells: Escherichia coli CodonPlus, Rosetta, BL21(DE3)
Particulars: FP, 0.2 µM fluorescein-labeled peptide, SH3 domain 0-200 µM, Tris/HCl pH 7.5, 25 °C, quadratic fit. As to the method:
as §1, §2, §3, §4, §5, §6

The source of these data is publication PMC10814857, “Functional Classification and Interaction Selectivity Landscape of the Human SH3 Domain Superfamily” (Cells, 2024).

“And” between values parts separate entries of the source, which are not always exact repeats. Equal entries are not always repeated. Where two headings read alike, the source gives them in different places. Peptide text beside a SMILES is read from it.

T12 sequence (Q9Y5X1 1-62): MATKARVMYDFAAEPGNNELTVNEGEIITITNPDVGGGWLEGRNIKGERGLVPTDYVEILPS

The term Kd denotes the free concentration of one partner at which half of the binding sites on the other are occupied at equilibrium, for simple one-to-one binding. For `CC[C@H](C)[C@H](NC(=O)[C@H](CCCCN)NC(=O)[C@H](CO)NC(=O)[C@@H]1CCCN1C(=O)[C@H](CO)NC(=O)[C@H](CO)NC(=O)[C@H](CCC(=O)O)NC(=O)[C@H](C)NC(=O)[C@@H]1CCCN1C(=O)[C@H](C)NC(=O)[C@H](CO)NC(=O)[C@H](CCC(=O)O)NC(=O)[C@@H]1CCCN1C(=O)[C@H](CCCNC(=N)N)NC(=O)[C@H](CCCNC(=N)N)NC(=O)[C@H](CCCNC(=N)N)NC(=O)[C@@H]1CCCN1C(=O)[C@@H]1CCCN1C(=O)[C@@H](NC(=O)[C@@H]1CCCN1C(=O)[C@@H]1CCCN1C(=O)[C@@H]1CCCN1C(=O)[C@@H](NC(=O)[C@@H]1CCCN1C(=O)[C@@H](NC(=O)[C@@H](N)CCC(=O)O)C(C)C)C(C)C)C(C)C)C(=O)O` [Peptide P3] (H-EVPVPPPVPPRRRPESAPAESSPSKI-OH), the dissociation constant (Kd) is over 200 µM in [1] (read-out: Kd); over 200 µM in [2]; 2 µM in assay [3]; over 200 µM in [4] (read-out: Kd); over 200 µM in assay [5]; over 200 µM in assay [6] (read-out: Kd). Moreover, the Kd in assay [7], in [8], in [9], in assay [10], in [11] and in [12] was over 200 µM in each case.

Take `CC[C@H](C)[C@H](NC(=O)[C@H](C)NC(=O)[C@@H]1CCCN1C(=O)[C@@H]1CCCN1C(=O)[C@H](CO)NC(=O)[C@H](CC(=O)O)NC(=O)[C@@H](N)CC(C)C)C(=O)N1CCC[C@H]1C(=O)N1CCC[C@H]1C(=O)N[C@@H](CCCNC(=N)N)C(=O)N[C@@H](CCC(N)=O)C(=O)N1CCC[C@H]1C(=O)N[C@H](C(=O)N[C@@H](CO)C(=O)N[C@@H](CCCCN)C(=O)O)[C@@H](C)O` [Peptide P4] (H-LDSPPAIPPRQPTSK-OH): the Kd in [1] (read-out: Kd), in [2], in assay [3], in assay [4] (read-out: Kd), in assay [5] and in assay [6] (read-out: Kd) was over 200 µM each time. For the same molecule, the dissociation constant Kd was 12 µM in assay [7]; over 200 µM in [8]; over 200 µM in assay [9]; over 200 µM in [10]; over 200 µM in [11]; over 200 µM in assay [12].

In the case of `CC[C@H](C)[C@H](N)C(=O)N[C@@H](C)C(=O)NCC(=O)N1CCC[C@H]1C(=O)N1CCC[C@H]1C(=O)N[C@H](C(=O)N1CCC[C@H]1C(=O)N1CCC[C@H]1C(=O)N[C@@H](CCCNC(=N)N)C(=O)N[C@@H](CCC(N)=O)C(=O)N[C@@H](CO)C(=O)O)C(C)C` [Peptide P9] (H-IAGPPVPPRQS-OH), the Kd entry in assay [1] is “do not bind”; in [1] (read-out: Kd), over 200 µM; in assay [2], over 200 µM; in [3] it was over 200 µM; in assay [4], “do not bind”; in [4] (read-out: Kd), over 200 µM. Further, the Kd in [5] was over 200 µM; in assay [6], “tightly bound”; in assay [6] (read-out: Kd), 9 µM and 0.9 µM; in assay [7], over 200 µM; in [8], over 200 µM; in [9], over 200 µM. Besides, the Kd in assay [10], in [11] and in assay [12] was over 200 µM in each case.

For `CC(C)C[C@H](NC(=O)[C@H](Cc1c[nH]cn1)NC(=O)[C@H](CC(C)C)NC(=O)[C@@H]1CCCN1C(=O)[C@H](CO)NC(=O)[C@H](CO)NC(=O)[C@@H](N)CO)C(=O)N[C@@H](CCC(N)=O)C(=O)N1CCC[C@H]1C(=O)N1CCC[C@H]1C(=O)N1CCC[C@H]1C(=O)N[C@@H](CC(C)C)C(=O)NCC(=O)N[C@@H](CCCCN)C(=O)N[C@@H](CCCCN)C(=O)O` [Peptide P6] (H-SSSPLHLQPPPLGKK-OH; N-terminus and C-terminus assumed), the Kd in assay [1] (read-out: Kd), in [2], in [3], in [4] (read-out: Kd), in [5] and in assay [6] (read-out: Kd) was over 200 µM throughout. Moreover, the Kd in assay [7], in [8], in assay [9], in assay [10], in assay [11] and in [12] was over 200 µM in each case.

Turning to `CC(C)C[C@H](NC(=O)[C@@H]1CCCN1C(=O)[C@@H](NC(=O)[C@H](CCCNC(=N)N)NC(=O)[C@@H]1CCCN1C(=O)[C@H](CO)NC(=O)[C@H](CC(N)=O)NC(=O)[C@@H]1CCCN1C(=O)[C@H](C)NC(=O)[C@@H](N)CO)[C@@H](C)O)C(=O)N[C@H](C(=O)N1CCC[C@H]1C(=O)N1CCC[C@H]1C(=O)N1CCC[C@H]1C(=O)N[C@@H](C)C(=O)N[C@@H](CO)C(=O)O)[C@@H](C)O` [Peptide P1] (H-SAPNSPRTPLTPPPAS-OH), the Kd in assay [1] (read-out: Kd), in assay [2], in assay [3], in assay [4] (read-out: Kd), in [5] and in assay [6] (read-out: Kd) was over 200 µM in each case. The Kd in assay [7] was 23 µM; in [8] it was over 200 µM; in [9], over 200 µM; in assay [10], over 200 µM; in assay [11], over 200 µM; in assay [12] it was over 200 µM.
